Measurements reported in patent US8247566B2, “Crystalline solvate of omeprazole sodium” (Lek Pharmaceuticals d.d., priority 2005, dated 2012).

Assays:
[1] = Solid state / storage stability; type: physicochemical
Description: The stability of omeprazole sodium form A obtained by the processes of the present invention may be determined by standard protocol for characterisation of stability of a pharmaceutically active substance (EU: Adopted by CPMP, March 2003, issued as CPMP/ICH/2736/99—“Committee for proprietary medical products; Note for Guidance on ICH Q1A (R2) Stability testing guidelines: Stability testing of new drug substances and products”). Packed omeprazole sodium form A was aged for a definite period of time (1 month, 3 months, 6 months) under accelerated conditions of aging (at a temperature of 40° C. and 75% relative humidity which is a standard accelerated condition for stability testing of pharmaceutical formulations) and/or stress condition of aging (at a temperature of 60° C. which is a standard stress condition for stability testing of pharmaceutically active substances). Determination of absorbance measured according to the PhEur method (PhEur 3 Suppl 2000) was used as a criterion for evaluation of the sample quality during stability testing. It has previously been shown that measurement of absorbance is a more sensitive method for monitoring the process of omeprazole sodium decomposition than, for example, detection of present impurities using chromatographic methods (PhEur 3 Suppl 2000).

[2] = Solubility in water; type: physicochemical
[3] = prior art description (EP-B-124 495, US 6,207,188, US 2004/0224987); cited from earlier work
[4] = prior art description (US 6,207,188, US 2004/0224987); cited from earlier work

COc1ccc2[n-]c([S+]([O-])Cc3ncc(C)c(OC)c3C)nc2c1.[Na+] (centres unmarked) [omeprazole sodium form A, omeprazole sodium]
stability on storage (chemical composition, hygroscopicity, solubility, crystalline form) [1]: stable
solubility in water [2]: highly soluble in water

COc1ccc2[n-]c([S+]([O-])Cc3ncc(C)c(OC)c3C)nc2c1.O.[Na+] (centres unmarked) [omeprazole sodium form B, omeprazole sodium monohydrate salt]
hygroscopicity as described in prior art [3]: non-hygroscopic
thermodynamic stability as described in prior art [4]: thermodynamically stable

COc1ccc2[n-]c([S+]([O-])Cc3ncc(C)c(OC)c3C)nc2c1.[Na+] (centres unmarked) [omeprazole sodium form E, omeprazole sodium]
stability under special conditions ([1]; stored under nitrogen atmosphere): stable compounds under special conditions
